# Assay results published in ChEMBL document CHEMBL1201862, “PubChem BioAssay data set” (2004).
#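 Five concentrations, 48 hours, 96-well plates. The concentration for 50% growth inhibition is given as GI50.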 Activity calls are given as the source filed them. Cut-off read from the data, not from the text of the source: active = GI50 up to about 1.1 µM and inactive = higher.
# Tests used:
# Assay in all cases: NCI-60 cell line screen, 48 h
# LOX IMVI = test system: LOX IMVI
# KM12 = test system: KM12
# OVCAR-4 = test system: OVCAR-4
# NCI-H226 = test system: NCI-H226
# SK-OV-3 = test system: SK-OV-3
# T47D = test system: T47D
# MOLT-4 = test system: MOLT-4
# SF-295 = test system: SF-295
# UACC-257 = test system: UACC-257
# CCRF-CEM = test system: CCRF-CEM
# OVCAR-5 = test system: OVCAR-5
# SNB-78 = test system: SNB-78
# MDA-N = test system: MDA-N
# DU-145 = test system: DU-145
# PC-3 = test system: PC-3
# HCT-116 = test system: HCT-116
# M14 = test system: M14
# KM-20L2 = test system: KM-20L2
# HOP-18 = test system: HOP-18
# SNB-19 = test system: SNB-19
# DMS-273 = test system: DMS-273
# NCI-H460 = test system: NCI-H460
# NCI-H23 = test system: NCI-H23
# RXF 393 = test system: RXF 393
# SNB-75 = test system: SNB-75
# M19-MEL = test system: M19-MEL
# SK-MEL-28 = test system: SK-MEL-28
# TK-10 = test system: TK-10
# OVCAR-3 = test system: OVCAR-3
# SR = test system: SR
# MDA-MB-231 = test system: MDA-MB-231
# OVCAR-8 = test system: OVCAR-8
# HOP-62 = test system: HOP-62
# MDA-MB-435 = test system: MDA-MB-435
# HCC 2998 = test system: HCC 2998
# HT-29 = test system: HT-29
# MCF7 = test system: MCF7
# CAKI-1 = test system: CAKI-1
# SN12C = test system: SN12C
# SK-MEL-5 = test system: SK-MEL-5
# ACHN = test system: ACHN
# UO-31 = test system: UO-31
# EKVX = test system: EKVX
# DMS-114 = test system: DMS-114
# A549 = test system: A549
# SW-620 = test system: SW-620
# NCI-H522 = test system: NCI-H522
# K562 = test system: K562
# Hs-578T = test system: Hs-578T
# BT-549 = test system: BT-549
# U-251 = test system: U-251
# HL-60 = test system: HL-60
# COLO 205 = test system: COLO 205
# RPMI-8226 = test system: RPMI-8226
# SF-539 = test system: SF-539
# SK-MEL-2 = test system: SK-MEL-2
# IGROV-1 = test system: IGROV-1
# 786-0 = test system: 786-0
# HCT-15 = test system: HCT-15
# HOP-92 = test system: HOP-92
# DLD-1 = test system: DLD-1
# Malme-3M = test system: Malme-3M
# UACC-62 = test system: UACC-62
# SF-268 = test system: SF-268
# NCI/ADR-RES = test system: NCI/ADR-RES
# A498 = test system: A498
# LXFL 529 = test system: LXFL 529
smiles,measurement,setting,value
COc1cc2c(cc1OC)C(Cl)C(c1ccc(Br)cc1)=C2Cl (stereo unspecified),GI50,LOX IMVI,9.48 µM (inactive)
same,GI50,KM12,16.3 µM (inactive)
same,GI50,OVCAR-4,13.8 µM (inactive)
same,GI50,NCI-H226,11.3 µM (inactive)
same,GI50,SK-OV-3,16.1 µM (inactive)
same,GI50,T47D,3.23 µM (inactive)
same,GI50,MOLT-4,4.24 µM (inactive)
same,GI50,SF-295,14.9 µM (inactive)
same,GI50,UACC-257,15.1 µM (inactive)
same,GI50,CCRF-CEM,10.7 µM (inactive)
same,GI50,OVCAR-5,15.4 µM (inactive)
same,GI50,SNB-78,13.5 µM (inactive)
same,GI50,MDA-N,3.23 µM (inactive)
same,GI50,DU-145,11.3 µM (inactive)
same,GI50,PC-3,7.82 µM (inactive)
same,GI50,HCT-116,9.16 µM (inactive)
same,GI50,M14,11.2 µM (inactive)
same,GI50,KM-20L2,18.5 µM (inactive)
same,GI50,HOP-18,20.9 µM (inactive)
same,GI50,SNB-19,16.7 µM (inactive)
same,GI50,DMS-273,14.3 µM (inactive)
same,GI50,NCI-H460,8.32 µM (inactive)
same,GI50,NCI-H23,9.95 µM (inactive)
same,GI50,RXF 393,11.2 µM (inactive)
same,GI50,SNB-75,13.3 µM (inactive)
same,GI50,M19-MEL,16.4 µM (inactive)
same,GI50,SK-MEL-28,14.8 µM (inactive)
same,GI50,TK-10,11.4 µM (inactive)
same,GI50,OVCAR-3,9.84 µM (inactive)
same,GI50,SR,2.62 µM (inactive)
same,GI50,MDA-MB-231,9.64 µM (inactive)
same,GI50,OVCAR-8,10.1 µM (inactive)
same,GI50,HOP-62,17.9 µM (inactive)
same,GI50,MDA-MB-435,4.37 µM (inactive)
same,GI50,HCC 2998,13.3 µM (inactive)
same,GI50,HT-29,13.3 µM (inactive)
same,GI50,MCF7,7.21 µM (inactive)
same,GI50,CAKI-1,15.1 µM (inactive)
same,GI50,SN12C,10.6 µM (inactive)
same,GI50,SK-MEL-5,14.4 µM (inactive)
same,GI50,ACHN,9.46 µM (inactive)
same,GI50,UO-31,8.65 µM (inactive)
same,GI50,EKVX,10.6 µM (inactive)
same,GI50,DMS-114,9.06 µM (inactive)
same,GI50,A549,14.1 µM (inactive)
same,GI50,SW-620,9.51 µM (inactive)
same,GI50,NCI-H522,4.42 µM (inactive)
same,GI50,K562,5.33 µM (inactive)
same,GI50,Hs-578T,6.19 µM (inactive)
same,GI50,BT-549,2.31 µM (inactive)
same,GI50,U-251,10.2 µM (inactive)
same,GI50,HL-60,5.46 µM (inactive)
same,GI50,COLO 205,14.4 µM (inactive)
same,GI50,RPMI-8226,2.52 µM (inactive)
same,GI50,SF-539,12.4 µM (inactive)
same,GI50,SK-MEL-2,9.08 µM (inactive)
same,GI50,IGROV-1,11.9 µM (inactive)
same,GI50,786-0,3.94 µM (inactive)
same,GI50,HCT-15,8.18 µM
same,GI50,HOP-92,12.1 µM (inactive)
same,GI50,DLD-1,12.7 µM (inactive)
same,GI50,Malme-3M,15 µM (inactive)
same,GI50,UACC-62,11.2 µM (inactive)
same,GI50,SF-268,11.1 µM (inactive)
same,GI50,NCI/ADR-RES,10.9 µM (inactive)
same,GI50,A498,15.2 µM (inactive)
Nc1ccc(C(=O)NN2C(=O)C(Cl)C2c2ccc([N+](=O)[O-])cc2)cc1 (stereo unspecified),GI50,LOX IMVI,1.74 µM (inactive)
same,GI50,KM12,10.5 µM (inactive)
same,GI50,OVCAR-4,12.7 µM (inactive)
same,GI50,NCI-H226,17.2 µM (inactive)
same,GI50,SK-OV-3,14.1 µM (inactive)
same,GI50,MOLT-4,3.2 µM (inactive)
same,GI50,SF-295,13.8 µM (inactive)
same,GI50,UACC-257,14.7 µM (inactive)
same,GI50,CCRF-CEM,3.54 µM (inactive)
same,GI50,OVCAR-5,17.6 µM (inactive)
same,GI50,SNB-78,22.6 µM (inactive)
same,GI50,HCT-116,1.63 µM (inactive)
same,GI50,M14,12.9 µM (inactive)
same,GI50,KM-20L2,13.4 µM (inactive)
same,GI50,SNB-19,13.1 µM (inactive)
same,GI50,DMS-273,5.62 µM (inactive)
same,GI50,NCI-H460,6.21 µM (inactive)
same,GI50,NCI-H23,7 µM (inactive)
same,GI50,SNB-75,10.2 µM (inactive)
same,GI50,M19-MEL,14.6 µM (inactive)
same,GI50,SK-MEL-28,7.23 µM (inactive)
same,GI50,TK-10,19.2 µM (inactive)
same,GI50,OVCAR-3,3.71 µM (inactive)
same,GI50,OVCAR-8,14.6 µM (inactive)
same,GI50,HOP-62,11 µM (inactive)
same,GI50,LXFL 529,4.86 µM (inactive)
same,GI50,HCC 2998,9.08 µM (inactive)
same,GI50,HT-29,8.87 µM (inactive)
same,GI50,CAKI-1,20 µM (inactive)
same,GI50,SN12C,14.8 µM (inactive)
same,GI50,SK-MEL-5,15.5 µM (inactive)
same,GI50,ACHN,12.3 µM (inactive)
same,GI50,UO-31,15.6 µM (inactive)
same,GI50,EKVX,7.59 µM (inactive)
same,GI50,DMS-114,2.84 µM (inactive)
same,GI50,A549,11.9 µM (inactive)
same,GI50,SW-620,11.1 µM (inactive)
same,GI50,NCI-H522,1.73 µM (inactive)
same,GI50,K562,9.75 µM (inactive)
same,GI50,U-251,2.13 µM (inactive)
same,GI50,HL-60,1.92 µM (inactive)
same,GI50,COLO 205,14.8 µM (inactive)
same,GI50,RPMI-8226,15.4 µM (inactive)
same,GI50,SF-539,11.6 µM (inactive)
same,GI50,SK-MEL-2,16.9 µM (inactive)
same,GI50,IGROV-1,5.31 µM (inactive)
same,GI50,786-0,3.87 µM (inactive)
same,GI50,HCT-15,8.05 µM
same,GI50,HOP-92,17.5 µM (inactive)
same,GI50,DLD-1,9.79 µM (inactive)
same,GI50,Malme-3M,12.1 µM (inactive)
same,GI50,UACC-62,8.59 µM (inactive)
same,GI50,SF-268,1.99 µM (inactive)
same,GI50,A498,20.8 µM (inactive)
COc1cccc(C(=O)O)c1Cc1cccc2ccccc12,GI50,LOX IMVI,> 100 µM (inactive)
same,GI50,KM12,> 100 µM (inactive)
same,GI50,OVCAR-4,> 100 µM (inactive)
same,GI50,NCI-H226,> 100 µM (inactive)
same,GI50,SK-OV-3,> 100 µM (inactive)
same,GI50,MOLT-4,> 100 µM (inactive)
same,GI50,SF-295,> 100 µM (inactive)
same,GI50,UACC-257,> 100 µM (inactive)
same,GI50,CCRF-CEM,> 100 µM (inactive)
same,GI50,OVCAR-5,> 100 µM (inactive)
same,GI50,HCT-116,> 100 µM (inactive)
same,GI50,M14,> 100 µM (inactive)
same,GI50,KM-20L2,> 100 µM (inactive)
same,GI50,HOP-18,> 100 µM (inactive)
same,GI50,SNB-19,> 100 µM (inactive)
same,GI50,DMS-273,> 100 µM (inactive)
same,GI50,NCI-H460,> 100 µM (inactive)
same,GI50,NCI-H23,> 100 µM (inactive)
same,GI50,RXF 393,> 100 µM (inactive)
same,GI50,SNB-75,> 100 µM (inactive)
same,GI50,M19-MEL,> 100 µM (inactive)
same,GI50,SK-MEL-28,> 100 µM (inactive)
same,GI50,TK-10,> 100 µM (inactive)
same,GI50,OVCAR-3,> 100 µM (inactive)
same,GI50,SR,> 100 µM (inactive)
same,GI50,OVCAR-8,99.8 µM (inactive)
same,GI50,HOP-62,> 100 µM (inactive)
same,GI50,LXFL 529,> 100 µM (inactive)
same,GI50,HCC 2998,> 100 µM (inactive)
same,GI50,HT-29,> 100 µM (inactive)
same,GI50,CAKI-1,> 100 µM (inactive)
same,GI50,SN12C,> 100 µM (inactive)
same,GI50,SK-MEL-5,> 100 µM (inactive)
same,GI50,ACHN,> 100 µM (inactive)
same,GI50,UO-31,> 100 µM (inactive)
same,GI50,EKVX,> 100 µM (inactive)
same,GI50,A549,> 100 µM (inactive)
same,GI50,SW-620,> 100 µM (inactive)
same,GI50,NCI-H522,> 100 µM (inactive)
same,GI50,K562,> 100 µM (inactive)
same,GI50,U-251,> 100 µM (inactive)
same,GI50,HL-60,> 100 µM (inactive)
same,GI50,COLO 205,> 100 µM (inactive)
same,GI50,SK-MEL-2,> 100 µM (inactive)
same,GI50,IGROV-1,> 100 µM (inactive)
same,GI50,786-0,> 100 µM (inactive)
same,GI50,HCT-15,> 100 µM
same,GI50,DLD-1,> 100 µM (inactive)
same,GI50,Malme-3M,> 100 µM (inactive)
same,GI50,UACC-62,> 100 µM (inactive)
same,GI50,SF-268,> 100 µM (inactive)
